Assay [1] relates to Candida albicans ATCC 10231. The assay can be described thus: Antifungal susceptibility testing, microdilution MIC. Type of assay: cell-based. The conditions noted are these: Candida albicans, ATCC10231. Summed up: (§1)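 Standard microdilution method, run in duplicate, using serial dilutions of cationic compounds.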
On the technique in general: Dilution methods test growth across graded concentrations, often in twofold steps.

The test system of assay [2] is Cryptococcus neoformans ATCC 90112. The assay is described as above. The format is cell-based. The conditions noted are these: Cryptococcus neoformans, ATCC90112. The method, boiled down:
as §1

For assay [3], the system named is secreted phospholipase B (PLB activity). The assay can be described thus: Radiometric assay, secreted PLB activity. Type of assay: biochemical, Cryptococcus neoformans H99. The conditions noted are these: for PLB, percentage inhibition of activity: Secretory Cryptococcal H99 Phospholipase. How it is done:
Fungal isolates and media. […] Isolate H99 was kindly supplied by Dr. Gary Cox (Duke University Medical Center, Durham, N.C., USA), and subcultured onto Sabouraud dextrose agar (SDA) at 30° C.
Preparation of supernatants containing secreted phospholipase activities. Isolate H99 was grown to confluence on SDA in 16 cm diameter Petri dishes for 72 h at 30° C. in air. Cells scraped from 10-20 dishes were washed sequentially with isotonic saline and imidazole buffer (10 mM imidazole, 2 mM CaCl2, 2 mM Mg Cl2, 56 mM D-Glucose, made up in isotonic saline, pH 5.5), resuspended in a volume of this buffer of about 10% of the cell volume, and incubated for 24 h at 37° C. The cell-free supernatant was separated by centrifugation as previously described and stored at −70° C.
Radiometric assay method for phospholipases. Enzyme activities were measured as described previously in a final volume of 125 μL at 37° C. For the determination of secreted PLB activity, carrier dipalmitoyl phosphatidylcholine (DPPC, final concentration 800 μM) and 1,2-di[1-^14C] palmitoyl phosphatidylcholine (20,000 dpm) were dried under nitrogen and suspended in 125 mM imidazole acetate buffer (assay buffer, pH 4.0) by sonication using a Branson 450 sonifier. The reaction time was 22 min, using 1 μg total protein and PLB activity was determined by the rate of decrease of the radiolabelled PC substrate, with appearance of the label in free fatty acid. This assay also simultaneously allows for the determination of phospholipase A, C and D activities. These activities were measured by the appearance of radiolabel from PC in Lyso PC, diacylglycerol and phosphatidic acid, respectively.
All reactions were terminated by adding 0.5 mL of chloroform:methanol (2:1 v/v). The reaction products were extracted by the method as disclosed in Bligh, E. C. and W. J. Dyer. 1959 ‘A rapid method of total lipid extraction and purification.’ Can. J. Biochem. Physiol. 37:911-917, separated by TLC and quantified as previously described. In the case of PLC activity, the TLC plates were developed in petroleum ether (BP 60-80° C.): diethyl ether: acetic acid (90:15:1, v/v/v) instead of chloroform:methanol:water (65:25:4, v/v/v).
Preparation of inhibitors and use in assays. The following compounds were tested (for structures, see FIG. 2): compound 1, 1,12-bis(tributylphosphonium)dodecane dibromide (Fluka AG, Buchs, Switzerland); compound 2, 1,10-bis(tributylammonium)-decane dibromide; compound 3, 1,12-bis(tributylammonium)do-decane dibromide (both synthesised in-house); compound 4, 1,10-bis(trimethylammonium)decane dibromide [“decamethonium”] (Sigma, St. Louis Mo., USA). All compounds were prepared as stock solutions of 700 μM in assay buffer containing 5 mM EDTA, which was then diluted serially with buffer to obtain solutions of 70, 7, 0.7 and 0.07 μM. In each assay, 45 μL of these solutions was used, and the final volume of 125 μL was made up of substrate, enzyme and buffer. The radiometric assay was carried out as above. Inhibition was calculated as the percent of substrates (DPPC or Lyso-PC) remaining in the case of PLB and LPL activities, or of DPPC produced, in the case of the LPTA activity. The amounts converted, or produced, in the inhibitor-free control were normalised to 100%, and the inhibition calculated against it. All assays were done in triplicate.
Under these conditions only PLB, LPL and LPTA activities (both secreted and cell-associated) were measured. Initially, compounds deemed to be potential inhibitors were assayed at 25 and 250 μM. Those showing some inhibition were then also assayed at 2.5 and 0.25 μM.

Assay [4] addresses T1, Porcine pancreatic phospholipase A2 (Sus scrofa, UniProt P00592).
T1 construct: purchased Sigma, St. Louis MO, USA
In words: Pancreatic phospholipase assay. Type of assay: biochemical. The settings on record: read-out: ppPLA2, percentage inhibition of activity. How it is done: Pancreatic phospholipase assay. Porcine pancreatic phospholipase A2 suspension in 3.2M ammonium sulfate (2.9 mg protein/mL, Sigma St.Louis Mo., USA) was used. One part of well mixed enzyme suspension was added to 4 parts of buffer (10 mM Tris/HCl, pH 8.2; 10 mM CaCl2. Activity and inhibition by test compounds was then measured by the radiometric method described in Example 2 for fungal PLB activity. However, 25 μL enzyme solution was used, and the reaction time was 1 hour. These conditions result in ˜60% substrate conversion in the inhibitor-free control.

SMILES strings stand for the structures. Read-outs that look alike come from different tables or passages of the source.

T1 sequence (P00592 23-146): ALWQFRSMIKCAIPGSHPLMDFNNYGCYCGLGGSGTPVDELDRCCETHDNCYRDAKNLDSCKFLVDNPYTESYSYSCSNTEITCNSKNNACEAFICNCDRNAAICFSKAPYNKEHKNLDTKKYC

The MIC is the lowest concentration that inhibits growth of the organism. Broadly, the inhibition is the percentage by which the read-out fell short of the control. Take `CCCC[N+](CCCC)(CCCC)CCCCCCCCCC[N+](CCCC)(CCCC)CCCC` [Compound 2, 1,10-bis(tributylammonium)-decane dibromide]: the minimum inhibitory concentration (MIC) in assay [1] (Table 6, no visible growth after 48 h at 35° C., read-out: MIC C. albicans ATCC 10231) came out at 88 µM; in assay [1] (Table 7, read-out: MIC (μM) C. alb. (10231)), 88 µM; in assay [2] (Table 6, no visible growth after 72 h at 35° C., read-out: MIC C. neof. ATCC 90112), 11 µM; in assay [2] (Table 7, read-out: MIC (μM) Crypto. (ATCC 90112)), 11 µM. In addition, the “PLB assay (% inhibition)” value in assay [3] (0.25 μM) is listed as 0%; in assay [3] (2.5 μM) it was 30%; in assay [3] (25 μM), 80%; in assay [3] (250 μM), 90%. Besides, the “PLB, percentage inhibition of activity” value in assay [3] (0.25 μM) was found to be 0%; in assay [3] (2.5 μM), 30%; in assay [3] (25 μM), 80%; in assay [3] (250 μM) it was 90%. Further, in assay [4] (0.25 μM), the inhibition at 0.25 µM was found to be 0%. The inhibition at 2.5 µM in assay [4] (2.5 μM) turned out to be 0%. The inhibition at 25 µM in assay [4] (25 μM) worked out at 25%. Besides, the inhibition at 250 µM in assay [4] (250 μM) was found to be 65%.

For the origin of these results see patent publication US7947854B2, “Bis-cationic compounds and use thereof” (The University of Sydney, priority 2003, dated 2011).
